Experimental data reported in ChEMBL document CHEMBL4732205, “Structure-based optimization identified novel furyl-containing 2,4-diarylaminopyrimidine analogues as ALK/ROS1 dual inhibitors with anti-mutation effects” (Eur J Med Chem, 2021).
The source made the active and inactive calls. The calls are words filed in the database; no cut-off is given here.

What was measured:
KARPAS-299 = test: Antiproliferative activity against human KARPAS-299 cells assessed as reduction in cell growth incubated for 72 hrs by MTT assay; assay type: functional, cell-based; settings: KARPAS-299, 72 h
MCF7 = test: Antiproliferative activity against human MCF7 cells assessed as reduction in cell growth incubated for 72 hrs by MTT assay; assay type: functional, cell-based; settings: MCF7, 72 h
[1] = biological target: Proto-oncogene tyrosine-protein kinase ROS (Homo sapiens, UniProt P08922); test: Inhibition of recombinant human N-terminal GST-tagged ROS1 (1883 to 2347 residues) expressed in baculovirus expression system using IRS1 as substrate incubated for 1 hr by mobility shift assay
[2] = biological target: ALK tyrosine kinase receptor (Homo sapiens, UniProt Q9UM73, L1196M); test: Inhibition of recombinant human N-terminal GST-tagged ALK L1196M mutant (1058 to 1620 residues) expressed in baculovirus expression system using Srctide as substrate incubated for 1 hr by mobility shift assay
A549 = test: Antiproliferative activity against human A549 cells assessed as reduction in cell growth incubated for 72 hrs by MTT assay; assay type: functional, cell-based; settings: A549, 72 h
[3] = biological target: Epidermal growth factor receptor (Homo sapiens, UniProt P00533); test: Inhibition of recombinant human N-terminal GST-tagged EGFR (669 to 1210 residues) expressed in baculovirus expression system using Srctide as substrate incubated for 1 hr by mobility shift assay
[4] = biological target: ALK tyrosine kinase receptor (Homo sapiens, UniProt Q9UM73, G1202R); test: Inhibition of recombinant human N-terminal GST-tagged ALK G1202R mutant (1058 to 1620 residues) expressed in baculovirus expression system using Srctide as substrate incubated for 1 hr by mobility shift assay
[5] = biological target: T1, ALK tyrosine kinase receptor (Homo sapiens, UniProt Q9UM73); test: Inhibition of recombinant human N-terminal GST-tagged ALK (1058 to 1620 residues) expressed in baculovirus expression system using Srctide as substrate incubated for 1 hr by mobility shift assay
Target sequence in this assay (Q9UM73 whole entry, the tested form may be a part): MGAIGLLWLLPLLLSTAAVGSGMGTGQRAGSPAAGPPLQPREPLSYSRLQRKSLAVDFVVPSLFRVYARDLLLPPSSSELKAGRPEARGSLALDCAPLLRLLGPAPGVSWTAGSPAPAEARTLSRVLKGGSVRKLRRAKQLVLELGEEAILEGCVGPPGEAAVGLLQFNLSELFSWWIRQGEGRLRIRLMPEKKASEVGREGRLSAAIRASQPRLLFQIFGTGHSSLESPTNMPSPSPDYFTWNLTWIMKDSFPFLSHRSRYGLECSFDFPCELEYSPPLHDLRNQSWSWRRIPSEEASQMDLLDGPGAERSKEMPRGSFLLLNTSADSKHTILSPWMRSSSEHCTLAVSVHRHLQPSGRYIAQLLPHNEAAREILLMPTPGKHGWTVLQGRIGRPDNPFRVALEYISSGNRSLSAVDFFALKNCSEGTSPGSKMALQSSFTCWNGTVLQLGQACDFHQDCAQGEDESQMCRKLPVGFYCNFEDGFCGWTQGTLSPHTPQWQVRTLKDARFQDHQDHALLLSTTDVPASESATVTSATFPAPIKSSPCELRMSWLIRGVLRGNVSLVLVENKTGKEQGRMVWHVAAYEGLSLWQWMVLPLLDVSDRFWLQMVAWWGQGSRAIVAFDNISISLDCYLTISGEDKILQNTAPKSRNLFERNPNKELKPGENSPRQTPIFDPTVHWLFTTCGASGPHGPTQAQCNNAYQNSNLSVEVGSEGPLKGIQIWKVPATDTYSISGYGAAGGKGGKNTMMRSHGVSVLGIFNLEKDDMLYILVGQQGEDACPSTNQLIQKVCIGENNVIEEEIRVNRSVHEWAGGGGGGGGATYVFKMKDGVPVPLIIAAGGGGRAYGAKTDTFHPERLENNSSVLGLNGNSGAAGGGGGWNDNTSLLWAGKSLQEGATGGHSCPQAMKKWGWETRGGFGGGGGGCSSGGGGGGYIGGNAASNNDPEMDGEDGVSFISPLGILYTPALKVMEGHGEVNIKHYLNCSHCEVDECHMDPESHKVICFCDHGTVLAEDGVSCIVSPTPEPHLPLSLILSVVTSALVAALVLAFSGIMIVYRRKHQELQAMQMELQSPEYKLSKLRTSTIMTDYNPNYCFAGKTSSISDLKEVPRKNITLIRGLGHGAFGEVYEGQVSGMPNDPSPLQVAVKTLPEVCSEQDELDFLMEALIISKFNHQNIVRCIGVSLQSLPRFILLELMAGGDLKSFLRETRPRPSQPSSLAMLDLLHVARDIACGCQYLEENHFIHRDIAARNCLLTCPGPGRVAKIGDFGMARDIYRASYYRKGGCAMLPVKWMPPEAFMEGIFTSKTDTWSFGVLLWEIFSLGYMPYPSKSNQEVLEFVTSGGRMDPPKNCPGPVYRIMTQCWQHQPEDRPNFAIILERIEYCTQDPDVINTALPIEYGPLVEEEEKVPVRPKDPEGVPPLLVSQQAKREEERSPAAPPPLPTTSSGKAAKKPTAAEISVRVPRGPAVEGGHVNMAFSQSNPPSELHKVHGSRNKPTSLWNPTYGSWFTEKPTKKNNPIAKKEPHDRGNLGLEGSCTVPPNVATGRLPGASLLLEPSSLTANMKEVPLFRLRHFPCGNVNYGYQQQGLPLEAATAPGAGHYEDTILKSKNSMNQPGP

NCI-H2228 [6] = test: Antiproliferative activity against human NCI-H2228 cells assessed as reduction in cell growth incubated for 72 hrs by MTT assay; assay type: functional, cell-based; settings: NCI-H2228, 72 h
[7] = biological target: T1, ALK tyrosine kinase receptor; test: Inhibition of ALK in human NCI-H2228 cells assessed as reduction in ALK phosphorylation at 100 nM incubated for 24 hrs by Western blot analysis relative to control; assay type: cell-based
Target sequence in this assay (Q9UM73 19-1620 limits assumed): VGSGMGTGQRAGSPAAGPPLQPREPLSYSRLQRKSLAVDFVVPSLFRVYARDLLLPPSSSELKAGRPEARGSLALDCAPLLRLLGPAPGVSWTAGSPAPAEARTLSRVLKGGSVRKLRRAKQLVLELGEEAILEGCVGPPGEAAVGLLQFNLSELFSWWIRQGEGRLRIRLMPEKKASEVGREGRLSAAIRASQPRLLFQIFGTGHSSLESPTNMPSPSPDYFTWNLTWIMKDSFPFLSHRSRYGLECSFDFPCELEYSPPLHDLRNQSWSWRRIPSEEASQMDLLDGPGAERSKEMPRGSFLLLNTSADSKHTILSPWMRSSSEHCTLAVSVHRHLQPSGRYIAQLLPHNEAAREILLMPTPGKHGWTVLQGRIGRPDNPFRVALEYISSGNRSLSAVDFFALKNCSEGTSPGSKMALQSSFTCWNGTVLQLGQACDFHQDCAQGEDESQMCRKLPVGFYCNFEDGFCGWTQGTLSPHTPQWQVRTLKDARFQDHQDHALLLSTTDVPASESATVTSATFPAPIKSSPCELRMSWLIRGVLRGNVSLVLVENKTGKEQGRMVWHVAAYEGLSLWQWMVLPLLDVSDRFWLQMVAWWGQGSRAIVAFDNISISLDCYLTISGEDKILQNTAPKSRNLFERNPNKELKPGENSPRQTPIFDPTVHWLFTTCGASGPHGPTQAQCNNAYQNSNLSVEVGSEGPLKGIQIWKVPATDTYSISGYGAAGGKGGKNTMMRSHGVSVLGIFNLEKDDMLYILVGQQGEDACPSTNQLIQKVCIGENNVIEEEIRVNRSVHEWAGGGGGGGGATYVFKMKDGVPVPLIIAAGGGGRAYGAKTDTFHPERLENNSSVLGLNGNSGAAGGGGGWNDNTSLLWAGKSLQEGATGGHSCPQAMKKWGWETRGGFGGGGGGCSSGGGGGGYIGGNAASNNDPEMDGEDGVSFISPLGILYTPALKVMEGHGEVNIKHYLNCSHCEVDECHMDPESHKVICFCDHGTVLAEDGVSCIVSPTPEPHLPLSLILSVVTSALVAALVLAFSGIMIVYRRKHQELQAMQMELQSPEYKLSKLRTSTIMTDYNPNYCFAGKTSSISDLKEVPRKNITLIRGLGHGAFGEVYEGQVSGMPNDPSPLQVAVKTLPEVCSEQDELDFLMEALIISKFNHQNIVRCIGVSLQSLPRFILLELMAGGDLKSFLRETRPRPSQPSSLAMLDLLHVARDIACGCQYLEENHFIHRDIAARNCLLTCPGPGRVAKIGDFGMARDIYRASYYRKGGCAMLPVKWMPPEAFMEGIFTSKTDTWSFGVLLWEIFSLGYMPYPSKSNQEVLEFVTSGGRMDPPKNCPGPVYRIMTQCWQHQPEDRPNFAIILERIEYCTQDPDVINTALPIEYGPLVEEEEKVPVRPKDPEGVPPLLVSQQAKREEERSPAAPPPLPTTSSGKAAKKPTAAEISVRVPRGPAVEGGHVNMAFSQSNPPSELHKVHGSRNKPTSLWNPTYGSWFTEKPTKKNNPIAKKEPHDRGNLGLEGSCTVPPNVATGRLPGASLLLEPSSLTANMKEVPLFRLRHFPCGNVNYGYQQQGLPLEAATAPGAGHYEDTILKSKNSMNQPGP

[8] = biological target: T1, ALK tyrosine kinase receptor; test: Inhibition of ALK in human NCI-H2228 cells assessed as reduction in ALK phosphorylation incubated for 24 hrs by Western blot analysis; assay type: cell-based
Target sequence in this assay (Q9UM73 19-1620 limits assumed): as above

NCI-H2228 [9] = test: Induction of apoptosis in human NCI-H2228 cells assessed as morphological changes at 30 nM incubated for 48 hrs by AO-EB staining based fluorescence microscopic analysis; assay type: functional, cell-based
[10] = system: ALK tyrosine kinase receptor (Homo sapiens), Q9UM73 [G1202R]; test: Potency index, ratio of IC50 of ceritinib to IC50 of compound for inhibition of recombinant human N-terminal GST-tagged ALK G1202R mutant (1058 to 1620 residues) expressed in baculovirus expression system using Srctide as substrate incubated for 1 hr by mobility shift assay
NCI-H2228 [11] = test: Induction of apoptosis in human NCI-H2228 cells assessed as early apoptotic cells by observing morphological changes of cell at 120 nM incubated for 48 hrs by AO-EB staining based fluorescence microscopic analysis; assay type: functional
[12] = biological target: T1, ALK tyrosine kinase receptor; test: Inhibition of ALK in human NCI-H2228 cells assessed as reduction in Erk phosphorylation at 25 to 100 nM incubated for 24 hrs by Western blot analysis; assay type: cell-based; settings: dose 25-100 nM
Target sequence in this assay (Q9UM73 19-1620 limits assumed): as above

[13] = biological target: T1, ALK tyrosine kinase receptor; test: Inhibition of ALK in human NCI-H2228 cells assessed as reduction in Akt phosphorylation at 25 to 100 nM incubated for 24 hrs by Western blot analysis; assay type: cell-based; settings: dose 25-100 nM
Target sequence in this assay (Q9UM73 19-1620 limits assumed): as above

NCI-H2228 [14] = test: Effect on ALK expression in human NCI-H2228 cells at 25 to 100 nM incubated for 24 hrs by Western blot analysis; assay type: functional, cell-based; settings: dose 25-100 nM
[15] = biological target: T1, ALK tyrosine kinase receptor; test: Inhibition of ALK in human NCI-H2228 cells assessed as reduction in Akt expression at 25 to 100 nM incubated for 24 hrs by Western blot analysis; assay type: cell-based; settings: dose 25-100 nM
Target sequence in this assay (Q9UM73 19-1620 limits assumed): as above

NCI-H2228 [16] = test: Induction of apoptosis in human NCI-H2228 cells assessed as morphological changes incubated for 48 hrs by Hoechst-33258 staining based fluorescence microscopic analysis; assay type: functional, cell-based; settings: dose 30-120 nM
[17] = biological target: T1, ALK tyrosine kinase receptor; test: Inhibition of ALK in human NCI-H2228 cells assessed as reduction in ERK expression at 25 to 100 nM incubated for 24 hrs by Western blot analysis; assay type: cell-based; settings: dose 25-100 nM
Target sequence in this assay (Q9UM73 19-1620 limits assumed): as above

[18] = system: ALK tyrosine kinase receptor (Homo sapiens), Q9UM73 [L1196M]; test: Potency index, ratio of IC50 of ceritinib to IC50 of compound for inhibition of recombinant human N-terminal GST-tagged ALK L1196M mutant (1058 to 1620 residues) expressed in baculovirus expression system using Srctide as substrate incubated for 1 hr by mobility shift assay
ALK tyrosine kinase receptor (Homo sapiens), Q9UM73 [L1196M], sequence (Q9UM73 whole entry L1196M, looked up, the tested form may be a part): as the sequence (Q9UM73 whole entry, the tested form may be a part) above, with L1196M counted along it

Epidermal growth factor receptor, sequence (P00533 whole entry, the tested form may be a part): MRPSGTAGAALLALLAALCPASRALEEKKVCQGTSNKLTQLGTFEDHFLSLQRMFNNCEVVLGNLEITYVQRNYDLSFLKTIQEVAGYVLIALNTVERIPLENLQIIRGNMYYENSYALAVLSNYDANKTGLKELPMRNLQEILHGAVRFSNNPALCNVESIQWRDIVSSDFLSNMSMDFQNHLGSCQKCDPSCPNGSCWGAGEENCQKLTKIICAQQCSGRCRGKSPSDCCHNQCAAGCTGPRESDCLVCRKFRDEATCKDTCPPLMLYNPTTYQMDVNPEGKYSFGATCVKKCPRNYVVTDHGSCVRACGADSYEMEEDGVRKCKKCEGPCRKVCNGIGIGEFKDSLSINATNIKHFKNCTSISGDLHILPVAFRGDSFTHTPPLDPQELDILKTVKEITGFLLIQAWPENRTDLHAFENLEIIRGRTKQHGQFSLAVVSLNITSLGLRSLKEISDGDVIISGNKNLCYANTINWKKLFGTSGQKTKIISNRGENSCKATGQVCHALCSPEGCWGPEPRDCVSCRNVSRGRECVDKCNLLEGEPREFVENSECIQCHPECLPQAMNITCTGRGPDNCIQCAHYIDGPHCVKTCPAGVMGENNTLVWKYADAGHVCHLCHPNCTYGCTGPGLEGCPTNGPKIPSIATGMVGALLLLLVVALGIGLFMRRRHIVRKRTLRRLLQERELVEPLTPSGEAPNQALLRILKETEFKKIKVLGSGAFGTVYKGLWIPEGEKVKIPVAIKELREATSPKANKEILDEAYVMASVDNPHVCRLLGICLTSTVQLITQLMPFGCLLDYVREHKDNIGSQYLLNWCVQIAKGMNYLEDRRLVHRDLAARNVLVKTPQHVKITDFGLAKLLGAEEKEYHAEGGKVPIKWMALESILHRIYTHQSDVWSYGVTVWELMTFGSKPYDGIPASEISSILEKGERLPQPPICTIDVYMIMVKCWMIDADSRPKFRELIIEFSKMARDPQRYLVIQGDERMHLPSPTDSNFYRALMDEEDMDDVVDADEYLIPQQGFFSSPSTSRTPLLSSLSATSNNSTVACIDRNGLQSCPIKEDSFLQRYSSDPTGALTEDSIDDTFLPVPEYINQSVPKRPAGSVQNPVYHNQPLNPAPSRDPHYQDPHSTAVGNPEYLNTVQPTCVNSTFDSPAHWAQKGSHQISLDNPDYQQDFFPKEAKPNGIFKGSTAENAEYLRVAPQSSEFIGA
ALK tyrosine kinase receptor (Homo sapiens, UniProt Q9UM73, G1202R), sequence (Q9UM73 19-1620 G1202R limits assumed): as the sequence (Q9UM73 19-1620 limits assumed) above, with G1184R counted along it
ALK tyrosine kinase receptor (Homo sapiens), Q9UM73 [G1202R], sequence (Q9UM73 whole entry G1202R, the tested form may be a part): as the sequence (Q9UM73 whole entry, the tested form may be a part) above, with G1202R counted along it

| IC50 (KARPAS-299) [µM] | IC50 (MCF7) [µM] | IC50 (A549) [µM] | IC50 (NCI-H2228 [6]) [µM] | SMILES | further results |
| --- | --- | --- | --- | --- | --- |
| 0.35 | > 10 | > 10 | 0.42 | COc1cc(NCc2ccc(CN3CCCC3)o2)ccc1Nc1ncc(Cl)c(Nc2ccccc2NS(C)(=O)=O)n1 |  |
|  | > 10 | > 10 | 1.59 | COc1cc(OCc2ccco2)ccc1Nc1ncc(Cl)c(Nc2ccccc2NS(C)(=O)=O)n1 |  |
| 0.66 | > 10 | > 10 | 0.86 | COc1cc(SCc2ccc(CN3CCSCC3)o2)ccc1Nc1ncc(Cl)c(Nc2ccccc2NS(C)(=O)=O)n1 |  |
| 2.47 | > 10 | > 10 | 3.54 | COc1cc(NCc2ccco2)ccc1Nc1ncc(Cl)c(Nc2ccccc2NC(C)=O)n1 |  |
| 2.41 | > 10 | > 10 | 3.79 | COc1cc(S(=O)(=O)Cc2ccco2)ccc1Nc1ncc(Cl)c(Nc2ccccc2NC(C)=O)n1 |  |
| 1.23 | > 10 | > 10 | 1.7 | COc1cc(S(=O)(=O)Cc2ccco2)ccc1Nc1ncc(Cl)c(Nc2ccccc2NS(C)(=O)=O)n1 |  |
| 0.08 | > 10 |  |  | Cc1cc(Nc2ncc(Cl)c(Nc3ccccc3S(=O)(=O)C(C)C)n2)c(OC(C)C)cc1C1CCNCC1 [CERITINIB] |  |
| 0.82 | > 10 | > 10 | 1.36 | COc1cc(SCc2ccco2)ccc1Nc1ncc(Cl)c(Nc2ccccc2NS(C)(=O)=O)n1 |  |
| 0.23 | > 10 | > 10 | 0.32 | COc1cc(NCc2ccc(CN3CCOCC3)o2)ccc1Nc1ncc(Cl)c(Nc2ccccc2NS(C)(=O)=O)n1 |  |
| 0.14 | > 10 | > 10 | 0.48 | COc1cc(SCc2ccc(CN3CCN(C)CC3)o2)ccc1Nc1ncc(Cl)c(Nc2ccccc2NS(C)(=O)=O)n1 |  |
| 0.35 | > 10 | 3.56 | 0.57 | CCN(CC)Cc1ccc(CNc2ccc(Nc3ncc(Cl)c(Nc4ccccc4NS(C)(=O)=O)n3)c(OC)c2)o1 |  |
| 0.98 | > 10 | > 10 | 1.58 | COc1cc(NCc2ccco2)ccc1Nc1ncc(Cl)c(Nc2ccccc2NS(C)(=O)=O)n1 |  |
| 0.2 | > 10 | 3.04 | 0.52 | COc1cc(NCc2ccc(CN(C)C)o2)ccc1Nc1ncc(Cl)c(Nc2ccccc2NS(C)(=O)=O)n1 |  |
| 0.12 | > 10 | > 10 | 0.2 | COc1cc(SCc2ccc(CN3CCC(C)CC3)o2)ccc1Nc1ncc(Cl)c(Nc2ccccc2NS(C)(=O)=O)n1 |  |
| 0.18 | > 10 | > 10 | 0.34 | CCN(CC)Cc1ccc(CSc2ccc(Nc3ncc(Cl)c(Nc4ccccc4NS(C)(=O)=O)n3)c(OC)c2)o1 |  |
| 0.15 | > 10 | 0.92 | 0.43 | COc1cc(SCc2ccc(CN3CCOCC3)o2)ccc1Nc1ncc(Cl)c(Nc2ccccc2NS(C)(=O)=O)n1 |  |
| 0.4 | > 10 | > 10 | 0.72 | CCN1CCN(Cc2ccc(CNc3ccc(Nc4ncc(Cl)c(Nc5ccccc5NS(C)(=O)=O)n4)c(OC)c3)o2)CC1 |  |
| 0.35 | > 10 | 3.92 | 0.5 | COc1cc(SCc2ccc(CN3CCCCC3)o2)ccc1Nc1ncc(Cl)c(Nc2ccccc2NS(C)(=O)=O)n1 |  |
| 0.62 | > 10 | > 10 | 0.53 | COc1cc(NCc2ccc(CN3CCC(C)CC3)o2)ccc1Nc1ncc(Cl)c(Nc2ccccc2NS(C)(=O)=O)n1 |  |
| 0.28 | > 10 | > 10 | 0.67 | CCN1CCN(Cc2ccc(CSc3ccc(Nc4ncc(Cl)c(Nc5ccccc5NS(C)(=O)=O)n4)c(OC)c3)o2)CC1 |  |
| 1.02 | > 10 | > 10 | 1.6 | COc1cc(NCc2ccc(CN3CCSCC3)o2)ccc1Nc1ncc(Cl)c(Nc2ccccc2NS(C)(=O)=O)n1 |  |
| 0.51 | > 10 | > 10 | 0.82 | COc1cc(SCc2ccc(CN3CCN(CCO)CC3)o2)ccc1Nc1ncc(Cl)c(Nc2ccccc2NS(C)(=O)=O)n1 |  |
| 0.87 | > 10 | > 10 | 0.99 | COc1cc(NCc2ccc(CN3CCN(CCO)CC3)o2)ccc1Nc1ncc(Cl)c(Nc2ccccc2NS(C)(=O)=O)n1 |  |
| 0.28 | > 10 | 2.36 | 0.35 | COc1cc(NCc2ccc(CN3CCCCC3)o2)ccc1Nc1ncc(Cl)c(Nc2ccccc2NS(C)(=O)=O)n1 |  |
| 0.36 | > 10 | > 10 | 0.48 | COc1cc(NCc2ccc(CN3CCN(C)CC3)o2)ccc1Nc1ncc(Cl)c(Nc2ccccc2NS(C)(=O)=O)n1 |  |

| SMILES | IC50 (KARPAS-299) [µM] | IC50 (MCF7) [µM] | IC50 (A549) [µM] | IC50 (NCI-H2228 [6]) [µM] | further results |
| --- | --- | --- | --- | --- | --- |
| COc1cc(NCC2CCCO2)ccc1Nc1ncc(Cl)c(Nc2ccccc2NS(C)(=O)=O)n1 (stereo not given) | 0.25 | > 10 | 0.8 | 0.14 | IC50 [1]: 0.0046 µM; IC50 [2]: 0.0058 µM; IC50 [3]: > 1 µM; IC50 [4]: 0.0045 µM; IC50 [5]: 0.0032 µM |
| COc1cc(OCC2CCCO2)ccc1Nc1ncc(Cl)c(Nc2ccccc2NS(C)(=O)=O)n1 (stereo not given) | 0.19 | > 10 | > 10 | 0.09 | IC50 [1]: 0.0037 µM; IC50 [2]: 0.0033 µM; IC50 [3]: > 1 µM; IC50 [4]: 0.0021 µM; IC50 [5]: 0.003 µM |
| COc1cc(SCc2ccc(CN(C)C)o2)ccc1Nc1ncc(Cl)c(Nc2ccccc2NS(C)(=O)=O)n1 | 0.02 | > 10 | > 10 | 0.11 | inhibition [7]: 100%; inhibition [8]: Dose-dependent effect; IC50 [1]: 0.0023 µM; Activity (NCI-H2228 [9]): Active; IC50 [2]: 0.0026 µM; Ratio IC50 [10]: 5; Activity (NCI-H2228 [11]): Active; inhibition [12]: Active; IC50 [3]: > 1 µM; inhibition [13]: Active; Activity (NCI-H2228 [14]): Active; inhibition [15]: Active; IC50 [4]: 0.0038 µM; Activity (NCI-H2228 [16]): Dose-dependent effect; inhibition [17]: Active; IC50 [5]: 0.0028 µM; Ratio IC50 [18]: 5 |
| COc1cc(SCc2ccc(CN3CCCC3)o2)ccc1Nc1ncc(Cl)c(Nc2ccccc2NS(C)(=O)=O)n1 | 0.07 | 2.81 | > 10 | 0.14 | IC50 [1]: 0.0042 µM; IC50 [2]: 0.0028 µM; IC50 [3]: > 1 µM; IC50 [4]: 0.0039 µM; IC50 [5]: 0.0034 µM |
